Measurements as given in ChEMBL document CHEMBL3091317, “Inhibition of cholinesterase and monoamine oxidase-B activity by Tacrine-Homoisoflavonoid hybrids” (Bioorg Med Chem, 2013).
Activity calls are given as the source filed them. The rule behind the calls is not given here.

What was measured:
[1] = target: T1, Amine oxidase [flavin-containing] B (Homo sapiens, UniProt P27338); assay: Irreversible inhibition of human recombinant MAO-B at 400 nM preincubated for 15 mins followed by repeated washing by centrifugation-ultrafiltration method relative to control
T1 sequence (P27338 whole entry): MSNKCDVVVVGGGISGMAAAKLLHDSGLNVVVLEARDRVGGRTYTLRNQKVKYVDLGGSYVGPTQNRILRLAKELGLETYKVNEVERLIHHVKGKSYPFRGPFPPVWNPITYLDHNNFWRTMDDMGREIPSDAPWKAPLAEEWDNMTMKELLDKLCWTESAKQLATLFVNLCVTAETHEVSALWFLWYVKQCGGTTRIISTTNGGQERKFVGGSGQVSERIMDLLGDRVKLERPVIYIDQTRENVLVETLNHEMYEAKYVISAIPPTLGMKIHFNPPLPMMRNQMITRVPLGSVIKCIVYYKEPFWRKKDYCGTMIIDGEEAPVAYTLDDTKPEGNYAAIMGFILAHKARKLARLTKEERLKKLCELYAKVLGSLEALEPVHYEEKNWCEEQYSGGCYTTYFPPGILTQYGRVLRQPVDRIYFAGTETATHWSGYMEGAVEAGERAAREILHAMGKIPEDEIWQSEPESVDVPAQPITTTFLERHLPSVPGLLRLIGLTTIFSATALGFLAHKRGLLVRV

[2] = target: T1, Amine oxidase [flavin-containing] B; assay: Irreversible inhibition of human recombinant MAO-B at 1 uM preincubated for 15 mins followed by repeated washing by centrifugation-ultrafiltration method relative to control
[3] = target: T1, Amine oxidase [flavin-containing] B; assay: Inhibition of human recombinant MAO-B at 1 uM incubated for 15 mins prior to washing relative to control; conditions: 0.25 h
[4] = target: T1, Amine oxidase [flavin-containing] B; assay: Inhibition of human recombinant MAO-B at 400 nM incubated for 15 mins prior to washing relative to control; conditions: 0.25 h
[5] = target: T1, Amine oxidase [flavin-containing] B
Description: Inhibition of human recombinant MAO-B using benzylamine as substrate preincubated for 15 mins under dark condition followed by substrate addition measured after 20 mins by fluorescence assay

[6] = target: T2, Acetylcholinesterase (Homo sapiens, UniProt P22303); assay: Inhibition of AChE (unknown origin)-induced beta-amyloid aggregation
[7] = target: Acetylcholinesterase (Electrophorus electricus) (UniProt O42275); assay: Mixed-type inhibition of electric eel AChE using acetylthiocholine chloride as substrate assessed as increase in Km at 60 to 100 nM preincubated for 15 mins followed by substrate addition by Lineweaver-Burk plot analysis
[8] = target: Acetylcholinesterase (Electrophorus electricus) (UniProt O42275); assay: Mixed-type inhibition of electric eel AChE using acetylthiocholine chloride as substrate assessed as decrease in Vmax at 60 to 100 nM preincubated for 15 mins followed by substrate addition by Lineweaver-Burk plot analysis
[9] = target: T2, Acetylcholinesterase; assay: Inhibition of human erythrocytic AChE using acetylthiocholine chloride as substrate preincubated for 15 mins followed by substrate addition measured every 1 min by Ellman method
[10] = target: T3, Amine oxidase [flavin-containing] A (Homo sapiens, UniProt P21397); conditions: 20 min, read-out: INH
T3 sequence (P21397 whole entry): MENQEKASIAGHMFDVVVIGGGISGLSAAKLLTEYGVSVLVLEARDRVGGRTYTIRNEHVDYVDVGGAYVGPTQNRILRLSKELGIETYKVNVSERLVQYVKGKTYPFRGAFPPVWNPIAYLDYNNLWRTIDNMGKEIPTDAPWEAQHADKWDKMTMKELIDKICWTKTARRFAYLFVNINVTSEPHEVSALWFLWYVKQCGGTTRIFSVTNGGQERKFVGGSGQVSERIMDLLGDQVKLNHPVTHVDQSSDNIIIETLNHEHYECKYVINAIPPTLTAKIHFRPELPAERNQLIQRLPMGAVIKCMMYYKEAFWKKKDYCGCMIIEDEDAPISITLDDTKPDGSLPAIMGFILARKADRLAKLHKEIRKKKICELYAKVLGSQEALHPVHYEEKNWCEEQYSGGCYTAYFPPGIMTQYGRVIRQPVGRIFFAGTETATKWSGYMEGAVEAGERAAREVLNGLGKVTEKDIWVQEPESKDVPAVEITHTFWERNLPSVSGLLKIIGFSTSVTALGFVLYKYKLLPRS
Description: Inhibition of human recombinant MAO-A using p-tyramine as substrate assessed as formation of H2O2 at 100 uM preincubated for 15 mins under dark condition followed by substrate addition measured after 20 mins by fluorescence assay relative to control

[11] = target: Cholinesterase (Equus caballus, UniProt P81908)
Description: Inhibition of horse serum BuChE using butylthiocholine chloride as substrate preincubated for 15 mins followed by substrate addition measured every 1 min by Ellman method

[12] = target: Acetylcholinesterase (Electrophorus electricus, UniProt O42275)
Description: Inhibition of electric eel AChE using acetylthiocholine chloride as substrate preincubated for 15 mins followed by substrate addition measured every 1 min by Ellman method

[13] = in vitro; conditions: PAMPA
Description: Permeability of the compound at 100 mg/mL after 10 hrs by PAMPA

[14] = target: T1, Amine oxidase [flavin-containing] B; assay: Inhibition of human recombinant MAO-B using benzylamine as substrate at 20 uM preincubated for 15 mins under dark condition followed by substrate addition measured after 20 mins by fluorescence assay

T2 sequence (P22303 whole entry): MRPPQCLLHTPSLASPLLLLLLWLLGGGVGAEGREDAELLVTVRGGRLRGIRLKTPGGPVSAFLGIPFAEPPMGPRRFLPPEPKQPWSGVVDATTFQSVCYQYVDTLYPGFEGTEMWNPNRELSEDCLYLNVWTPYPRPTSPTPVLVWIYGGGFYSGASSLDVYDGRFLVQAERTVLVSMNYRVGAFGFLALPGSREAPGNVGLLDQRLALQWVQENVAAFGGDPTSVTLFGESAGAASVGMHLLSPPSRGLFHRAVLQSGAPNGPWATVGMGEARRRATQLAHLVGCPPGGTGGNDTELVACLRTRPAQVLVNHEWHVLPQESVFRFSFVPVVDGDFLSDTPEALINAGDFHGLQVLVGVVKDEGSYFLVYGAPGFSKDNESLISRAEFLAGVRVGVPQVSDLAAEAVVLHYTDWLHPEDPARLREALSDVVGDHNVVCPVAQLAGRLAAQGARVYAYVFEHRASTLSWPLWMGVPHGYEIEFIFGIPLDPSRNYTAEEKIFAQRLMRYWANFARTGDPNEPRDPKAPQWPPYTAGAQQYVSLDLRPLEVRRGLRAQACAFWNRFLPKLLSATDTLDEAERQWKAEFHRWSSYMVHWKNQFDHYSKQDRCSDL
Sequence of Cholinesterase (P81908 whole entry): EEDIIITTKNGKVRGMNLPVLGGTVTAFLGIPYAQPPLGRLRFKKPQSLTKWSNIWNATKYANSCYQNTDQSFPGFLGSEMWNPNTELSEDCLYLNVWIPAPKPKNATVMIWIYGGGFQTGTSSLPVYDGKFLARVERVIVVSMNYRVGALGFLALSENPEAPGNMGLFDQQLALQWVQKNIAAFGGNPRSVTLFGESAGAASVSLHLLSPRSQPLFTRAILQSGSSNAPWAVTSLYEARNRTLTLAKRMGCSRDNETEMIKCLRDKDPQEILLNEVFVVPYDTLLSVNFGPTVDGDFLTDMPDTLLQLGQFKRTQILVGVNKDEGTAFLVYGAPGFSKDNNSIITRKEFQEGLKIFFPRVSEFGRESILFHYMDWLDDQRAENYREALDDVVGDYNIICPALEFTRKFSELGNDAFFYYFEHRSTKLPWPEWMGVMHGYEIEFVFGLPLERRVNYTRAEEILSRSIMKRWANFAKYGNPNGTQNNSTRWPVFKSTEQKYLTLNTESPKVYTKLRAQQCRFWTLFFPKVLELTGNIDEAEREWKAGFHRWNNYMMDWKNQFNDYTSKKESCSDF
Sequence of Acetylcholinesterase (Electrophorus electricus, UniProt O42275) (O42275 whole entry): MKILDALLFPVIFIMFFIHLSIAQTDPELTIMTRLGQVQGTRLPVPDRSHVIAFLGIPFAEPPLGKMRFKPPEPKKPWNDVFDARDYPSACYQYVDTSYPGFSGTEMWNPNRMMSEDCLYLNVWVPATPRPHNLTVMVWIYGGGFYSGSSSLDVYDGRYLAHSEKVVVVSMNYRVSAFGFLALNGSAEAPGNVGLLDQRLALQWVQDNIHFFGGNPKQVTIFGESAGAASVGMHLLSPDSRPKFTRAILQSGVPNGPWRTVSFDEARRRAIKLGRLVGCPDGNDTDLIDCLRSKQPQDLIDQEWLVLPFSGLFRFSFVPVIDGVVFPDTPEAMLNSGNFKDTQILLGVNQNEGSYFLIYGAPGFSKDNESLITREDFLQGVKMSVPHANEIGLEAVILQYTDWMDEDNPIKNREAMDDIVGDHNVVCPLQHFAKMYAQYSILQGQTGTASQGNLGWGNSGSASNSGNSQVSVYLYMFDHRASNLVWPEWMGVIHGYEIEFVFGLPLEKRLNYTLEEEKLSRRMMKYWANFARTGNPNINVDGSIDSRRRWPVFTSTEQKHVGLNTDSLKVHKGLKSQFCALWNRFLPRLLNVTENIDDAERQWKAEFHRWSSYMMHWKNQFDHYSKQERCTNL
Sequence of Acetylcholinesterase (Electrophorus electricus) (O42275 24-633 limits assumed): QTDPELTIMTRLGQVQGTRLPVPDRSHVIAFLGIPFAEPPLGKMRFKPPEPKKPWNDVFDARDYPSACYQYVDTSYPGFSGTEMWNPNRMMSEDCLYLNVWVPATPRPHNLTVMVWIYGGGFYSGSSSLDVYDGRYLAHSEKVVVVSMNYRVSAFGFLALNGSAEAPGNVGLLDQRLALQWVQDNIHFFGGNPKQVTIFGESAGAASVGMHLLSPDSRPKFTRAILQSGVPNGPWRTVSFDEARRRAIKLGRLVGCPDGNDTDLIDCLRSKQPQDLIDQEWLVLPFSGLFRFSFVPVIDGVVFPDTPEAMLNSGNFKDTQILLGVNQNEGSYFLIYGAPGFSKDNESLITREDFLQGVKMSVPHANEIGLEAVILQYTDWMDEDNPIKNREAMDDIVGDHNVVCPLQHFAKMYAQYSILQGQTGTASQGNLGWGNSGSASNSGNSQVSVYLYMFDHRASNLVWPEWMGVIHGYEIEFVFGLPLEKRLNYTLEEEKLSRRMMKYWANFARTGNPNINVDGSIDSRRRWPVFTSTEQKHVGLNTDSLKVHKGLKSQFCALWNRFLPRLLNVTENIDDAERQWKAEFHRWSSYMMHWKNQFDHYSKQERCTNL

Row | Compound | inhibition at 0.4 µM [1] [%] | inhibition at 1 µM [2] [%] | inhibition at 1 µM [3] [%] | inhibition at 0.4 µM [4] [%] | IC50 [5] [µM] | inhibition [6] | inhibition [7] | inhibition [8] | IC50 [9] [µM] | inhibition at 100 µM [10] [%] | IC50 [11] [µM] | IC50 [12] [µM] | Papp at 10 h, 100 mg/mL [13] [×10⁻⁶ cm/s] | inhibition (INH) [14]
1 | COc1ccc(/C=C2\COc3cc(OCCCCCCNc4c5c(nc6ccccc46)CCCC5)ccc3C2=O)cc1 | 33.5 | 67.5 | 78.4 | 47.1 | 0.401 | Active | Active | Active | 0.157 | 48.3 | 0.033 | 0.0679 | 6.8 | –
2 | COc1ccc(/C=C2\COc3cc(OCCCCCCNc4c5c(nc6ccccc46)CCCC5)ccc3C2=O)cc1OC | – | – | – | – | 19.7 | – | – | – | – | 51.6 | 0.0347 | 0.117 | – | –
3 | COc1ccc(/C=C2\COc3cc(O)ccc3C2=O)cc1 [BONDUCELLIN] | – | – | – | – | 1.06 | – | – | – | – | 24.1 | > 100 | > 100 | – | –
4 | COc1ccc(/C=C2\COc3cc(OCCCCCCCCNc4c5c(nc6ccccc46)CCCC5)ccc3C2=O)cc1 | – | – | – | – | 0.518 | – | – | – | 0.122 | 64.8 | 0.0931 | 0.0685 | 4.9 | –
5 | Cc1ccc(/C=C2\COc3cc(OCCCCCCNc4c5c(nc6ccccc46)CCCC5)ccc3C2=O)cc1 | – | – | – | – | 1.24 | – | – | – | – | 60.5 | 0.0546 | 0.129 | – | –
6 | COc1ccc(/C=C2\COc3cc(OCCCCCCCCCNc4c5c(nc6ccccc46)CCCC5)ccc3C2=O)cc1 | – | – | – | – | 0.437 | – | – | – | – | 60.2 | 0.0309 | 0.169 | – | –
7 | COc1ccc(/C=C2\COc3cc(OCCCCCNc4c5c(nc6ccccc46)CCCC5)ccc3C2=O)cc1 | – | – | – | – | 1.16 | – | – | – | 0.098 | 58.4 | 0.0236 | 0.0783 | 6.6 | –
8 | O=C1/C(=C/c2ccc(Cl)cc2)COc2cc(OCCCCCCNc3c4c(nc5ccccc35)CCCC4)ccc21 | – | – | – | – | 15.4 | – | – | – | – | 23.3 | 0.0445 | 0.101 | 1.1 | –
9 | COc1ccccc1/C=C1\COc2cc(OCCCCCCNc3c4c(nc5ccccc35)CCCC4)ccc2C1=O | – | – | – | – | 1.79 | – | – | – | – | 70.3 | 0.0299 | 0.151 | – | –
10 | COc1ccc(/C=C2\COc3cc(OCCCCCCCCCCNc4c5c(nc6ccccc46)CCCC5)ccc3C2=O)cc1 | – | – | – | – | 3.43 | – | – | – | – | 69.6 | 0.0062 | 0.888 | – | –
11 | COc1cccc(/C=C2\COc3cc(OCCCCCCNc4c5c(nc6ccccc46)CCCC5)ccc3C2=O)c1 | – | – | – | – | 2.2 | – | – | – | – | 54.1 | 0.0471 | 0.142 | – | –
12 | CCN(CC)c1ccc(/C=C2\COc3cc(OCCCCCCNc4c5c(nc6ccccc46)CCCC5)ccc3C2=O)cc1 | – | – | – | – | – | – | – | – | – | 22.4 | 0.235 | 0.693 | – | Not Active
13 | COc1ccc(/C=C2\COc3cc(OCCCCCCCCNc4c5c(nc6cc(Cl)ccc46)CCCC5)ccc3C2=O)cc1 | – | – | – | – | 1.56 | – | – | – | – | 33.1 | 0.613 | 0.188 | – | –
14 | CN(C)c1ccc(/C=C2\COc3cc(OCCCCCCNc4c5c(nc6ccccc46)CCCC5)ccc3C2=O)cc1 | – | – | – | – | 1.03 | – | – | – | – | 31.5 | 0.0657 | 0.115 | – | –
15 | COc1ccc(/C=C2\COc3cc(OCCCCCCNc4c5c(nc6cc(Cl)ccc46)CCCC5)ccc3C2=O)cc1 | – | – | – | – | 1.36 | – | – | – | – | 15.3 | 0.0259 | 0.123 | – | –
16 | COc1cc(/C=C2\COc3cc(OCCCCCCNc4c5c(nc6ccccc46)CCCC5)ccc3C2=O)cc(OC)c1OC | – | – | – | – | – | – | – | – | – | 25.7 | 0.109 | 0.106 | – | Not Active
17 | O=C1/C(=C/c2ccc(F)cc2)COc2cc(OCCCCCCNc3c4c(nc5ccccc35)CCCC4)ccc21 | – | – | – | – | 1.09 | – | – | – | 0.105 | 58.4 | 0.0442 | 0.0701 | 4 | –
18 | COc1ccc(CC2COc3cc(OCCCCCCNc4c5c(nc6ccccc46)CCCC5)ccc3C2=O)cc1 (centres undefined) | – | – | – | – | 1.11 | – | – | – | – | 78.2 | 0.0274 | 0.0917 | 2.8 | –
